Reference: patent publication US20240239794A1, “PKC-Theta Modulators” (Exscientia AI Limited, priority 2021, published 2024)
Where two headings read alike, the source gives them in different places.

Legend:
[1] = biological target: Recombinant human PKC-theta (His-tagged 362-706) (Homo sapiens (Human), UniProt Q04759); assay: PKC-theta inhibition assay (HTRF KinEASE kit); type: biochemical; details: ATP 6.5 μM
Method: (§1) PKC-theta and PKC-delta biochemical activities were measured using the PKC-theta HTRF KinEASEkit kit, according to manufacturer's instructions (Cisbio, catalogue number 61ST1PEJ). Briefly, the kinase buffer component of the kit was supplemented with 10 mM MgCl2, 1 mM DTT and 0.1% Tween 20. For the PKC-theta assay, STK substrate and ATP were added to provide a final assay concentration of 525 nM and 6.5 μM, respectively. For the PKC-delta assay, STK substrate and ATP were added to provide a final assay concentration of 243 nM and 5.7 μM, respectively. The streptavidin_XL665 and STK antibody-cryptate detection reagents were mixed according to the manufacturer's instructions. Test compounds were diluted in DMSO in a series of 10 semi-log step doses; 10 nL of each compound dose were dispensed in 384 well plates. Recombinant human PKC-theta (His-tagged 362-706) or PKC-delta (His-tagged 345-676) was diluted into kinase buffer to provide a final assay concentration of 10 ng/ml and added to the test compound for 30 minutes on ice. The reaction was started by addition of the substrate and ATP and incubated at 25° C. for 30 minutes or 20 minutes for the PKC-theta and PKC-delta assays, respectively. The detection reagents were added, and the plate was incubated in the dark for 2 hours. Fluorescence was measured on an Envision 2103 plate reader with optical setup for […] in the HTRF mode. The ratio of acceptor and donor emission signals was calculated for each well. Percent inhibition values were calculated from the HTRF ratios at different doses and fitted to a 4-parameter logistic curve to determine IC50 values (see Table 1).

[2] = biological target: Recombinant human PKC-delta (His-tagged 345-676) (Homo sapiens (Human), UniProt Q05655); assay: PKC-delta inhibition assay (HTRF KinEASE kit), PKC-theta/PKC-delta selectivity; type: biochemical; details: ratio; for PKC-theta/PKC-delta selectivity: PKC-theta over PKC-delta, HTRF assays; for PKC-theta/PKC-delta selectivity (binned): binned A to G
Chain of Recombinant human PKC-delta (His-tagged 345-676) (Q05655 345-676): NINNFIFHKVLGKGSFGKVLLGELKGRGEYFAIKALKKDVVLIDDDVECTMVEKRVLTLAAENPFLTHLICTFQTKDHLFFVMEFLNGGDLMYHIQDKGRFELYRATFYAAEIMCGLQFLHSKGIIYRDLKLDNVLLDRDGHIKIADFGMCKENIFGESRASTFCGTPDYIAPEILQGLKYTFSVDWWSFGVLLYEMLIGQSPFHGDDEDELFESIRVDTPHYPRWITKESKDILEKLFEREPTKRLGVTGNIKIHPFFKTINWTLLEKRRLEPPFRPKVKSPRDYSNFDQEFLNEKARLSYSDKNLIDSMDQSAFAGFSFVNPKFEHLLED
Method: as §1

[3] = test system: IL-2 secretion by human effector memory T cells (TEM); assay: Effector memory T cells IL-2 release assay; type: cell-based; details: T-cell, human CD4+ TEM cells, CD3/CD28 bead stimulation, 24 h
Method: Test compound-mediated inhibition of NFκB signalling in T cells was assessed by quantification of the IL-2 secretion by human effector memory T cells (TEM) upon treatment and stimulation. Human TEM cells were isolated from buffy coats of healthy donors obtained from the French blood bank. First, peripheral blood mononuclear cells (PBMC) were purified from buffy coats diluted 1:1 with DPBS (Gibco, cat #14190-094) by Pancoll (PAN BIOTECH, cat #P04-60500) density gradient centrifugation at 400×g for 20 minutes. TEM cells were further enriched by negative immuno-magnetic cell sorting using a human CD4+ Effector Memory T Cell Isolation Kit (Miltenyi, cat #130-094-125) according to the manufacturer's instructions. Aliquots of 3×10E6 purified TEM cells were kept frozen in Cryo-SFM medium (PromoCell, cat #C-29912) in gas phase nitrogen until used. Cell purity was verified by flow cytometry analysis of 200 000 PFA-fixed cells previously labelled with monoclonal antibodies anti-CD4-PerCP-Cy5.5 (BD Pharmigen, cat #332772), anti-CD8-V500 (BD Biosciences, cat #561617), anti-CD14-Pacific Blue (Biolegend, cat #325616), anti-CD45 RA-FITC (Biolegend, cat #304106) and anti-CCR7-APC (in CD4+ Effector Memory T Cell Isolation Kit, Miltenyi, cat #130-094-125).
TEM cells were resuspended in complete RPMI medium composed of: RPMI 1640 (Gibco, cat #31870-025), 10% heat inactivated fetal bovine serum (Sigma, cat #F7524), 2 mM GlutaMAX (Gibco, cat #35050-038), 1 mM sodium pyruvate 100× (Gibco, cat #11360-039), 1% MEM non-essential amino acids solution (Gibco, cat #11140-035) and 100 U/mL penicillin, 100 µg/mL streptomycin (Sigma-Aldrich, cat #11074440001). 5,000 cells per well were plated onto flat clear bottom 384 well plates (Corning, cat #3770). 5,000 Dynabeads Human T-Activator CD3/CD28 (Gibco, cat #11132D) were added to each well for cell stimulation. Finally, 10 doses of test compound, originally prepared in DMSO by serial semi-log step dilution, were also added to cells in triplicate wells. Final DMSO concentration in wells was 0.1% in a total volume of 100 µL complete medium. Plates were incubated for 24 h at 37° C. in 5% CO2 atmosphere. After incubation, cell suspensions were centrifuged at 400×g and culture supernatants were recovered and stored at −80° C. Cell viability was assessed by flow cytometry after staining the cells with Fixable Viability Dye eFluor 780 (Invitrogen, cat #65-0865-14). IL-2 levels were determined in cell supernatants using an HTRF human IL-2 detection kit (Cisbio, cat #62HIL02PEH). IL-2 data at the different compound doses were fitted to a 4-parameter logistic curve to determine IC50 values, corresponding to the compound concentration leading to 50% reduction of the maximal IL-2 levels observed in each experiment. Viability data were analysed similarly to exclude cytotoxicity as a cause of IL-2 decrease (see Table 1).

[4] = binned A to H, read-out: PKC-theta HTRF pIC50 (binned) (converted)
[5] = read-out: PKC-theta HTRF pIC50 (converted)
[6] = binned A to G, read-out: PKC-theta IL2 pIC50 (binned) (converted)
[7] = read-out: PKC-theta IL2 pIC50 (converted)

Chain of Recombinant human PKC-theta (His-tagged 362-706) (Q04759 362-706): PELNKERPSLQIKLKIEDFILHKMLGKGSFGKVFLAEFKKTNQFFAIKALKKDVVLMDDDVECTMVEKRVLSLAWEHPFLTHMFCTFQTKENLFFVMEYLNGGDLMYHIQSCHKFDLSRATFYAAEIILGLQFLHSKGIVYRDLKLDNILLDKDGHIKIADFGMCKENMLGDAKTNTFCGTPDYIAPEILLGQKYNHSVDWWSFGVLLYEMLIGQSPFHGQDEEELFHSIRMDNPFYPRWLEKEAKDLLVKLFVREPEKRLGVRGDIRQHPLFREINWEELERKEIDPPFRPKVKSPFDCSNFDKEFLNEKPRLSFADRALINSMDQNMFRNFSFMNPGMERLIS

SMILES | IC50 [1, 4] | IC50 [1, 5] | PKC-theta/PKC-delta selectivity [2] | PKC-theta/PKC-delta selectivity (binned) [2] | IC50 [3, 6] | IC50 [3, 7] | PKC-theta HTRF pIC50 [1]
CO[C@]1(C)C(=O)Nc2nccc(-c3nn([C@@H]4CCNC[C@@H]4F)c4ccccc34)c21 (single isomer, unassigned) [Example 90] | ≤ 1 nM | 1 nM | 11 | D (D means a ratio of between 10 and 20) | 10 to 31.6 nM | 15.8 nM | –
CC1(O)C(=O)Nc2nccc(-c3nn(C4(CC#N)CCC4)c4ccccc34)c21 (stereo not drawn) [Example 25, 2-[1-[3-(3-hydroxy-3-methyl-2-oxo-1H-pyrrolo[2,3-b]pyridin-4-yl)indazol-1-yl]cyclobutyl]acetonitrile] | ≤ 1 nM | – | 6 | E (E means a ratio of between 5 and 10) | 10 to 31.6 nM | 20 nM | 9.3
CO[C@]1(C)C(=O)Nc2nccc(-c3nn(C4(CC#N)CCC4)c4ccccc34)c21 (single isomer, unassigned) [Example 81] | 31.6 to 100 nM | 31.6 nM | 20 | C (C means a ratio of between 20 and 30) | 316 to 1000 nM | 794 nM | –
CO[C@]1(C)C(=O)Nc2nccc(-c3nn(CC4(F)CCNCC4)c4ccccc34)c21 (single isomer, unassigned) [Example 75] | 1 to 3.16 nM | 2 nM | 19 | D (D means a ratio of between 10 and 20) | 31.6 to 100 nM | 50.1 nM | –
CC1(C)C(=O)Nc2nccc(-c3nn(C4CCNCC4)c4ccccc34)c21 [Example 9] | 1 to 3.16 nM | – | 15 | D (D means a ratio of between 10 and 20) | 31.6 to 100 nM | 39.8 nM | 8.7
C[C@@]1(O)C(=O)Nc2nccc(-c3nn(C4(CC#N)CCC4)c4ncccc34)c21 (single isomer, unassigned) [Example 60] | 3.16 to 10 nM | 3.98 nM | 8 | E (E means a ratio of between 5 and 10) | 100 to 316 nM | 100 nM | –
CC[C@@]1(O)C(=O)Nc2nccc(-c3nn([C@@H]4CCNC[C@@H]4F)c4ccccc34)c21 (single isomer, unassigned) [Example 83] | 1 to 3.16 nM | 1.58 nM | 13 | D (D means a ratio of between 10 and 20) | 31.6 to 100 nM | 63.1 nM | –
CC1(C)C(=O)Nc2nccc(-c3nn(C4CCNCC4)c4c(F)cccc34)c21 [Example 32] | 3.16 to 10 nM | – | 13 | D (D means a ratio of between 10 and 20) | 100 to 316 nM | 100 nM | 8.1
CC1(C)C(=O)Nc2nccc(-c3nn([C@H]4CCNC4)c4ccc(F)cc34)c21 [Example 73] | 10 to 31.6 nM | – | 10 | D (D means a ratio of between 10 and 20) | 316 to 1000 nM | 631 nM | 7.5
COC1(C)C(=O)Nc2nccc(-c3nn([C@@H]4CCNC[C@@H]4F)c4ccccc34)c21 (stereo partly drawn) [Example 61] | 1 to 3.16 nM | – | 16 | D (D means a ratio of between 10 and 20) | 31.6 to 100 nM | 50.1 nM | 8.7
CC1(C)C(=O)Nc2nccc(-c3ccn(C4CCNCC4)c3)c21 [Example 6] | 31.6 to 100 nM | – | 3 | F (F means a ratio of between 1 and 5) | 316 to 1000 nM | 631 nM | 7.4
CC1(C)C(=O)Nc2nccc(-c3nn([C@H]4CCNC[C@@H]4F)c4ccccc34)c21 (racemic) [Example 36] | 3.16 to 10 nM | – | 14 | D (D means a ratio of between 10 and 20) | 100 to 316 nM | 126 nM | 8.3
CC[C@]1(OC)C(=O)Nc2nccc(-c3nn(CC4(F)CCNCC4)c4ccccc34)c21 (single isomer, unassigned) [Example 89] | 1 to 3.16 nM | 2.51 nM | 32 | B (B means a ratio of between 30 and 50) | 31.6 to 100 nM | 79.4 nM | –
CC1(C)C(=O)Nc2nccc(-c3nn(C4(CO)CCNC4)c4ccccc34)c21 (stereo not drawn) [Example 23] | ≤ 1 nM | – | 11 | D (D means a ratio of between 10 and 20) | 10 to 31.6 nM | 31.6 nM | 9.3
CC[C@]1(C)C(=O)Nc2nccc(-c3nn([C@H]4CCNC[C@H]4F)c4ccccc34)c21 (single isomer, unassigned) [Example 108] | 1 to 3.16 nM | 3.16 nM | 17 | D (D means a ratio of between 10 and 20) | 31.6 to 100 nM | 50.1 nM | –
